Calls of active or inactive are those of the source. No cut-off for these calls is given here.
How the values were obtained:
Splenocyte [1] = experiment: Inhibition of ConA-stimulated IFNgamma production in C57BL/6J mouse splenocytes at 0.156 to 1.25 uM; assay type: functional, cell-based; settings: dose 0.156-1.25 µM
Splenocyte [2] = experiment: Inhibition of ConA-stimulated TNFalpha production in C57BL/6J mouse splenocytes at 0.156 to 1.25 uM; assay type: functional, cell-based; settings: dose 0.156-1.25 µM
Splenocyte [3] = experiment: Inhibition of ConA-stimulated IL-6 production in C57BL/6J mouse splenocytes at 0.156 to 1.25 uM; assay type: functional, cell-based; settings: dose 0.156-1.25 µM
Splenocyte [4] = experiment: Inhibition of ConA-stimulated IL-2 production in C57BL/6J mouse splenocytes at 0.156 to 1.25 uM; assay type: functional, cell-based; settings: dose 0.156-1.25 µM
Mus musculus [5] = experiment: Hepatoprotective activity against ConA-induced hepatitis in C57BL/6J mouse assessed as suppression of ALT level at 10 mg/kg, ip administered for 3 days by automatic analyzer; assay type: functional, organism-based; settings: time 3.0 day
Mus musculus [6] = experiment: Hepatoprotective activity against ConA-induced hepatitis in C57BL/6J mouse assessed as suppression of AST level at 10 mg/kg, ip administered for 3 days by automatic analyzer; assay type: functional, organism-based; settings: time 3.0 day
Mus musculus [7] = experiment: Hepatoprotective activity against ConA-induced hepatitis in C57BL/6J mouse assessed as suppression of LDH level at 10 mg/kg, ip administered for 3 days by automatic analyzer; assay type: functional, organism-based; settings: time 3.0 day
Mus musculus [8] = experiment: Hepatoprotective activity against ConA-induced hepatitis in C57BL/6J mouse assessed as effect on cleaved caspase 3 expression at 10 mg/kg, ip administered for 2 days by TUNEL staining based assay; assay type: functional, organism-based; settings: time 2.0 day
Mus musculus [9] = experiment: Hepatoprotective activity against ConA-induced hepatitis in C57BL/6J mouse assessed as effect on BCL2 expression at 10 mg/kg, ip administered for 2 days by TUNEL staining based assay; assay type: functional, organism-based; settings: time 2.0 day
Mus musculus [10] = experiment: Hepatoprotective activity against ConA-induced hepatitis in C57BL/6J mouse assessed as effect on FAS expression at 10 mg/kg, ip administered for 2 days by TUNEL staining based assay; assay type: functional, organism-based; settings: time 2.0 day
Splenocyte [11] = experiment: Immunosuppressive activity against anti-CD3/anti-CD28 stimulated C57BL/6J mouse splenocytes assessed as reduction of IFN-gamma secretion at 0.625 to 2.5 uM; assay type: functional, cell-based; settings: dose 0.625-2.5 µM
Splenocyte [12] = experiment: Immunosuppressive activity against anti-CD3/anti-CD28 stimulated C57BL/6J mouse splenocytes assessed as reduction of TNFalpha secretion at 0.625 to 2.5 uM; assay type: functional, cell-based; settings: dose 0.625-2.5 µM
Splenocyte [13] = experiment: Immunosuppressive activity against anti-CD3/anti-CD28 stimulated C57BL/6J mouse splenocytes assessed as reduction of IL-6 secretion at 0.625 to 2.5 uM; assay type: functional, cell-based; settings: dose 0.625-2.5 µM
Splenocyte [14] = experiment: Immunosuppressive activity against anti-CD3/anti-CD28 stimulated C57BL/6J mouse splenocytes assessed as reduction of IL-10 secretion at 0.625 to 2.5 uM; assay type: functional, cell-based; settings: dose 0.625-2.5 µM
Splenocyte [15] = experiment: Immunosuppressive activity against anti-CD3/anti-CD28 stimulated C57BL/6J mouse splenocytes assessed as reduction of IL-17 secretion at 0.625 to 2.5 uM; assay type: functional, cell-based; settings: dose 0.625-2.5 µM
Splenocyte [16] = experiment: Immunosuppressive activity against anti-CD3/anti-CD28 stimulated C57BL/6J mouse splenocytes assessed as reduction of IL-4 secretion at 0.625 to 2.5 uM; assay type: functional, cell-based; settings: dose 0.625-2.5 µM
Splenocyte [17] = experiment: Immunosuppressive activity in C57BL/6J mouse splenocytes assessed as inhibition of ConA-induced splenocytes proliferation at 0.156 uM measured after 72 hrs by CellTrace Violet staining based flow cytometric analysis (reference value: 63.9 %); assay type: functional; parameters: scale not given: the % may be the effect or the level left
Splenocyte [18] = experiment: Immunosuppressive activity in C57BL/6J mouse splenocytes assessed as inhibition of ConA-induced splenocytes proliferation at 0.3125 uM measured after 72 hrs by CellTrace Violet staining based flow cytometric analysis (reference value: 63.9 %); assay type: functional; parameters: scale not given: the % may be the effect or the level left
Splenocyte [19] = experiment: Immunosuppressive activity in C57BL/6J mouse splenocytes assessed as inhibition of ConA-induced splenocytes proliferation at 0.625 uM measured after 72 hrs by CellTrace Violet staining based flow cytometric analysis (reference value: 63.9 %); assay type: functional; parameters: scale not given: the % may be the effect or the level left
Splenocyte [20] = experiment: Immunosuppressive activity in C57BL/6J mouse splenocytes assessed as inhibition of ConA-induced splenocytes proliferation at 1.25 uM measured after 72 hrs by CellTrace Violet staining based flow cytometric analysis (reference value: 63.9 %); assay type: functional; parameters: scale not given: the % may be the effect or the level left
[21] = Hepatotoxicity in C57BL/6J mouse at 10 mg/kg, ip administered for 3 days by hematoxylin and eosin staining based immunohistochemical analysis; assay type: toxicity, organism-based; settings: in vivo, 72 h, time 3 day
Mus musculus [22] = experiment: Hepatoprotective activity against ConA-induced hepatitis in C57BL/6J mouse assessed as suppression of CD3+ T cells infiltration expression at 10 mg/kg, ip administered for 2 days by TUNEL staining based assay; assay type: functional, organism-based; settings: time 2.0 day
[23] = Immunosuppressive activity in human PBMCs assessed as inhibition of anti-CD3/anti-CD28 induced T-cell proliferation at 0.3125 uM for 72 hrs by CellTrace Violet staining based flow cytometric analysis (reference value: 63.3 %); assay type: functional, PBMC; parameters: scale not given: the % may be the effect or the level left
[24] = Immunosuppressive activity in human PBMCs assessed as inhibition of anti-CD3/anti-CD28 induced T-cell proliferation at 0.625 uM for 72 hrs by CellTrace Violet staining based flow cytometric analysis (reference value: 63.3 %); assay type: functional, PBMC; parameters: scale not given: the % may be the effect or the level left
[25] = Immunosuppressive activity in human PBMCs assessed as inhibition of anti-CD3/anti-CD28 induced T-cell proliferation at 1.25 uM for 72 hrs by CellTrace Violet staining based flow cytometric analysis (reference value: 63.3 %); assay type: functional, PBMC; parameters: scale not given: the % may be the effect or the level left
[26] = Immunosuppressive activity in human PBMCs assessed as inhibition of anti-CD3/anti-CD28 induced T-cell proliferation at 2.5 uM for 72 hrs by CellTrace Violet staining based flow cytometric analysis (reference value: 63.3 %); assay type: functional, PBMC; parameters: scale not given: the % may be the effect or the level left
Splenocyte [27] = experiment: Immunosuppressive activity in C57BL/6J mouse splenocytes assessed as inhibition of anti-CD3/anti-CD28 induced T-cell proliferation at 0.3125 uM for 72 hrs by CellTrace Violet staining based flow cytometric analysis (reference value: 78.4 %); assay type: functional; parameters: scale not given: the % may be the effect or the level left
Splenocyte [28] = experiment: Immunosuppressive activity in C57BL/6J mouse splenocytes assessed as inhibition of anti-CD3/anti-CD28 induced T-cell proliferation at 0.625 uM for 72 hrs by CellTrace Violet staining based flow cytometric analysis (reference value: 78.4 %); assay type: functional; parameters: scale not given: the % may be the effect or the level left
Splenocyte [29] = experiment: Immunosuppressive activity in C57BL/6J mouse splenocytes assessed as inhibition of anti-CD3/anti-CD28 induced T-cell proliferation at 1.25 uM for 72 hrs by CellTrace Violet staining based flow cytometric analysis (reference value: 78.4 %); assay type: functional; parameters: scale not given: the % may be the effect or the level left
Splenocyte [30] = experiment: Immunosuppressive activity in C57BL/6J mouse splenocytes assessed as inhibition of anti-CD3/anti-CD28 induced T-cell proliferation at 2.5 uM for 72 hrs by CellTrace Violet staining based flow cytometric analysis (reference value: 78.4 %); assay type: functional; parameters: scale not given: the % may be the effect or the level left
PBMC [31] = experiment: Immunosuppressive activity against anti-CD3/anti-CD28 stimulated human PBMCs assessed as reduction of IFN-gamma secretion at 0.625 to 2.5 uM; assay type: functional, tissue-based; settings: dose 0.625-2.5 µM
PBMC [32] = experiment: Immunosuppressive activity against anti-CD3/anti-CD28 stimulated human PBMCs assessed as reduction of TNFalpha secretion at 0.625 to 2.5 uM; assay type: functional, tissue-based; settings: dose 0.625-2.5 µM
PBMC [33] = experiment: Immunosuppressive activity against anti-CD3/anti-CD28 stimulated human PBMCs assessed as reduction of IL-6 secretion at 0.625 to 2.5 uM; assay type: functional, tissue-based; settings: dose 0.625-2.5 µM
PBMC [34] = experiment: Immunosuppressive activity against anti-CD3/anti-CD28 stimulated human PBMCs assessed as reduction of IL-10 secretion at 0.625 to 2.5 uM; assay type: functional, tissue-based; settings: dose 0.625-2.5 µM

**Q.** What does the source list for `COC1=C(C(C)C)C(=O)[C@]23O[C@@]2(C1=O)[C@@]1(C)CC[C@H](O)C(C)(C)[C@@H]1CC3=O`?
**A.** inhibition (Splenocyte [1]): Active; inhibition (Splenocyte [2]): Active; inhibition (Splenocyte [3]): Active; inhibition (Splenocyte [4]): Active; Activity (Mus musculus [5]): Active; Activity (Mus musculus [6]): Active; Activity (Mus musculus [7]): Active; Activity (Mus musculus [8]): inactive; Activity (Mus musculus [9]): inactive; Activity (Mus musculus [10]): inactive; Activity (Splenocyte [11]): Active; Activity (Splenocyte [12]): Active; Activity (Splenocyte [13]): Active; Activity (Splenocyte [14]): Active; Activity (Splenocyte [15]): Active; Activity (Splenocyte [16]): Active; Activity (Splenocyte [17]): 51.1%; Activity (Splenocyte [18]): 42.2%; Activity (Splenocyte [19]): 29.9%; Activity (Splenocyte [20]): 10.8%; Activity [21]: Non-Toxic; Activity (Mus musculus [22]): Active; Activity [23]: 61.3%; Activity [24]: 56.4%; Activity [25]: 24.9%; Activity [26]: 8.24%; Activity (Splenocyte [27]): 70.2%; Activity (Splenocyte [28]): 68.8%; Activity (Splenocyte [29]): 7.39%; Activity (Splenocyte [30]): 5.48%; Activity (PBMC [31]): Active; Activity (PBMC [32]): Active; Activity (PBMC [33]): Active; Activity (PBMC [34]): Active
